Experimental findings from patent US7507281B2, “Antimicrobial cementitious composition, method and article” (Microban Products Company, priority 2005, dated 2009) are described below.

One data set concerns Aspergillus niger. Kind of data set: AATCC 30 Part III antifungal test of grout discs after QUV/Xenon exposure and water-spray neutralization (Example 2). The data set is classed as cell-based. The settings on record: for Growth A. niger: weathered and pH-neutralized, 168-hour incubation, sulfate. As to the method:
Grout samples were prepared and cured as in Example 1, with antimicrobial agent admixed into the dry compound at levels of 0 ppm, 1000 ppm, and 2000 ppm based upon the total weight of the dry mix and antimicrobial agent (excluding water). Water was added, the slurry mixed, and 1.5-inch diameter pucks cast.
After air-curing, the samples were exposed for eight hours in either of QUV/Spray Accelerated Weathering Controller or Xenon Testing Chamber Xe-3HS (both by Q-Panel Lab Products, Cleveland, Ohio). The QUV exposure is an assay well known in the art for simulating aging, discoloration and/or degradation caused by conditions of ultraviolet radiation exposure, such as would be encountered in an outdoor application.
Thereafter, the sample discs were subjected to one hour of water spray, followed by one hour of condensation, alternatingly repeated for a total of eight hours. This treatment neutralizes the pH of the grout samples, simulating brief real-world exposure of the grout articles to, e.g., a shower stall application.
Samples then were plated against Aspergillus niger using the 30 Part III test. At the end of the 168-hour incubation period, the test plates were removed from the test chamber and the samples were evaluated for fungal attack and encroachment. The antimicrobial agent tested and the results of the evaluation are shown in Table 2; control and experimental plates are shown in FIGS. 1-3.

A short description of the next data set: Thermal stability. Format: physicochemical. As to the method:
This species also appears to be thermally stable up to 160° C. and above. Thermal stability makes imazalil agent especially well-suited for inclusion in the production of cementitious powder by various manufacturers, as these powders are typically dried and packed at elevated temperatures. Many other antimicrobial/antifungal agents tend to discolor and clump when so thermally exposed.

A short description of data set [1]: UV stability / discoloration under ultraviolet irradiation. Format: physicochemical. The settings on record: UVA 340 lamps, 168 hrs. The source says:
Resistance to ultraviolet radiation and discoloring is advantageous given the typical outdoor environment of cured cementitious articles.

The test system of the next data set is K. pneumoniae. Kind of data set: Zone of inhibition of fresh cured BAL grout discs, K. pneumoniae (Example 1). Format: cell-based. The settings on record: Klebsiella pneumoniae.
A further data set deals with S. aureus. Kind of data set: Zone of inhibition of fresh cured BAL grout discs, S. aureus (Example 1). Format: cell-based. Conditions: Staphylococcus aureus.
Setting [2] is: 1000 ppm imazalil sulfate in BAL grout disc, fresh cured.
Setting [3] is: 2000 ppm imazalil sulfate in BAL grout disc, fresh cured.

In the case of `C=CCOC(Cn1ccnc1)c1ccc(Cl)cc1Cl` (racemic) [imazalil agent, (±)-1-[2-(2,4-dichlorophenyl)-2-(2-propenyloxy)ethyl]-1H-imidazole], the “Resistance of grout puck to fungal attack (FIG. 2)” value in the data set with Aspergillus niger (1000 ppm imazalil agent in BAL grout, Aspergillus niger) is “strong resistance to fungal attack”. Also, the “Disruption to fungal encroachment by grout sample (FIG. 3)” value with Aspergillus niger (2000 ppm imazalil agent in BAL grout, Aspergillus niger) is recorded as “significant disruption to fungal encroachment”. For the same molecule, the “Thermally stable up to” value in the data set “Thermal stability” was no less than 160 °C. For the same molecule, in data set [1], the “Discoloration after prolonged exposure to ultraviolet irradiation” value is given as “no discoloration”.
As to `C=CCOC(Cn1ccnc1)c1ccc(Cl)cc1Cl.O=S(=O)(O)O` (racemic) [Imazalil Sulfate, (±)-1-[2-(2,4-dichlorophenyl)-2-(2-propenyloxy)ethyl]-1H-imidazole sulfate], the zone of inhibition at 500 ppm was found to be 5 mm in the data set on K. pneumoniae (BAL, read-out: Zone of Inhibition, mm K. pneumoniae) and 5 mm in the data set on S. aureus (BAL, read-out: Zone of Inhibition, mm S. aureus). Also, the figures for the zone of inhibition at 1000 ppm in the data set with K. pneumoniae (setting [2]) and in the data set on S. aureus (setting [2]) were 5 mm and 6 mm, respectively. Besides, the zone of inhibition at 2000 ppm was found to be 5 mm in the data set on K. pneumoniae (setting [3]) and 6 mm in the data set with S. aureus (setting [3]). Besides, the “Growth A. niger” value with Aspergillus niger (1000 ppm imazalil sulfate in grout disc) and in the data set on Aspergillus niger (2000 ppm imazalil sulfate in grout disc) was “no growth” in each case.
